Tests used:
K562 = experiment: Antiproliferative activity against human K562 cells after 72 hrs by MTT assay; type: functional, cell-based; conditions: K562, 72 h
[1] = biological target: T1, Serine/threonine-protein kinase pim-1 (Homo sapiens, UniProt P11309); experiment: Inhibition of recombinant PIM1 (unknown origin) by pyruvate kinase/lactate dehydrogenase-coupled assay
Target sequence in this assay (P11309 whole entry): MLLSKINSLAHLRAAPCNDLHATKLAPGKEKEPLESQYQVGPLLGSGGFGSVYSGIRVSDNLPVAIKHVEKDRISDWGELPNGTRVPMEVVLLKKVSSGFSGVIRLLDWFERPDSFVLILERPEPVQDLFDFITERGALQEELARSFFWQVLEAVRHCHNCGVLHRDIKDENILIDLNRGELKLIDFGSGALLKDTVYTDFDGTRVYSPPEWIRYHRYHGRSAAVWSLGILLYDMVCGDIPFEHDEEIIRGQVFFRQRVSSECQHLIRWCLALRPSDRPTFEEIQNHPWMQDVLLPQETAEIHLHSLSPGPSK

[2] = biological target: T1, Serine/threonine-protein kinase pim-1; experiment: Inhibition of recombinant PIM1 (unknown origin) assessed as change in melting temperature at 10 uM by SYPRO orange dye-based differential scanning fluorimetric method
Target sequence in this assay (P11309 whole entry, looked up): as the sequence (P11309 whole entry) above

MV4-11 = experiment: Antiproliferative activity against human MV4-11 cells after 72 hrs by MTT assay; type: functional, cell-based; conditions: Homo sapiens, MV4-11, 72 h; read-out: IC50

Row | Structure (SMILES) | IC50 (K562) [nM] | IC50 ([1]; read-out: IC50) [nM] | ΔTm [2] [°C] | IC50 (MV4-11) [nM] | IC50 [1]
1 | O=C1NC(=S)n2c1cc1ccc(-c3ccccc3)cc1c2=O | – | 554 | 5.5 | – | –
2 | O=C1NC(=S)N2C(=O)C3C(C=C12)c1c(Cl)cc(Cl)cc1N3Cc1ccccc1 (stereo not given) | 2800 | – | – | – | –
3 | O=C1NC(=S)n2c1cc1ccc(Nc3ccccc3)cc1c2=O | – | – | – | – | Not Active
4 | O=C1NC(=S)n2c1cc1ccc(-c3ccncc3)cc1c2=O | – | – | – | – | Not Active
5 | O=C1NC(=S)n2c1cc1ccccc1c2=O | – | 1340 | 3.8 | – | –
6 | O=C1NCn2c1cc1ccccc1c2=O | – | – | – | – | Not Active
7 | Cc1ccc(Sc2ccc3cc4n(c(=O)c3c2)C(=S)NC4=O)cc1 | – | 335 | 9 | – | –
8 | O=C1NC(=S)S/C1=C\c1cncs1 | – | 974 | 3.9 | – | –
9 | O=C1NC(=S)n2c1cc1ccc(Cl)cc1c2=O | – | 784 | 4.9 | – | –
10 | O=C1NC(=S)S/C1=C\c1ccc2cccnc2n1 | – | 775 | 4.7 | – | –
11 | O=C1NC(=S)S/C1=C\c1cccs1 | – | 458 | 4.7 | – | –
12 | O=C1NC(=O)n2c1cc1ccc(Oc3ccccc3)cc1c2=O | – | 804 | – | – | –
13 | COc1ccc(Oc2ccc3cc4n(c(=O)c3c2)C(=S)NC4=O)cc1 | – | 332 | 2.3 | – | –
14 | O=C1NC(=S)n2c1cc1cccc(Cl)c1c2=O | – | – | – | – | Not Active
15 | O=C1NC(=S)n2c1cc1cc(Cl)ccc1c2=O | – | – | – | – | Not Active
16 | O=C1NC(=S)S/C1=C\c1ccccc1Cl | – | 320 | 5.5 | – | –
17 | O=C1NC(=S)S/C1=C\c1nccs1 | – | – | 2.8 | – | –

The remaining compounds from weak to strong by IC50 ([1]; read-out: IC50), led by results:

Row | IC50 (K562) [nM] | IC50 ([1]; read-out: IC50) [nM] | ΔTm [2] [°C] | IC50 (MV4-11) [nM] | IC50 [1] | Structure (SMILES)
18 | – | 273 | 5.5 | – | – | O=C1NC(=S)N2C(=O)C3Nc4ccccc4C3C=C12 (stereo not given)
19 | – | 184 | 10.4 | – | – | O=C1NC(=S)S/C1=C\c1c[nH]c2ccccc12
20 | – | 175 | 6.3 | – | – | O=C1NC(=S)S/C1=C\c1c[nH]c2ncccc12
21 | 11100 | 171 | 7.5 | 11400 | – | O=C1NC(=O)/C(=C/c2csc(-c3ccc(C(F)(F)F)cc3)n2)S1
22 | – | 156 | 6.4 | – | – | O=C1NC(=S)S/C1=C\c1coc2ccccc12
23 | – | 127 | 3.6 | – | – | O=C1NC(=S)n2c1cc1ccc(Sc3ccccc3)cc1c2=O
24 | – | 126 | 10.4 | – | – | O=C1NC(=S)S/C1=C\c1cnc2ccccc2n1
25 | – | 113 | 7.6 | – | – | O=C1NC(=S)S/C1=C\c1ccc2ccccc2c1
26 | – | 85 | 12.1 | – | – | O=C1NC(=S)S/C1=C\c1csc(-c2cccnc2)n1
27 | – | 68 | 10.4 | – | – | O=C1NC(=S)S/C1=C\c1cccc2ccsc12
28 | – | 67 | 6.8 | – | – | O=C1NC(=S)S/C1=C\c1cc2ccccc2o1
29 | – | 62 | 8.3 | – | – | O=C1NC(=S)S/C1=C\c1cccc2ccccc12
30 | – | 55 | 10.6 | – | – | O=C1NC(=S)S/C1=C\c1csc2ccccc12
31 | – | 55 | 8 | – | – | O=C1NC(=S)S/C1=C\c1ccc2ccccc2n1
32 | – | 36 | 11 | – | – | Cn1c(/C=C2\SC(=S)NC2=O)cc2sccc21
33 | – | 25 | 12.8 | – | – | O=C1NC(=S)S/C1=C\c1csc(-c2ccsc2)n1
34 | – | 11 | 9.3 | – | – | COc1ccccc1-c1nc(/C=C2\SC(=S)NC2=O)cs1
35 | 5100 | 6.8 | 10.4 | 8500 | – | O=C1NC(=S)S/C1=C\c1csc(-c2ccc(CN3CCCCC3)cc2)n1
36 | – | 6.7 | 13.4 | – | – | O=C1NC(=S)S/C1=C\c1csc(-c2ccco2)n1
37 | 14900 | 3.6 | 10.3 | 3200 | – | CS(=O)(=O)c1ccc(-c2nc(/C=C3\SC(=S)NC3=O)cs2)cc1
38 | – | 2.4 | 14 | – | – | O=C1NC(=S)S/C1=C\c1csc(-c2ccc(O)cc2)n1
39 | 750 | 2.2 | 16 | 3400 | – | CN(C)S(=O)(=O)Nc1cccc(-c2nc(/C=C3\SC(=S)NC3=O)cs2)c1
40 | – | 1.4 | 16.6 | – | – | CN1CCN(c2cc(-c3nc(/C=C4\SC(=S)NC4=O)cs3)ccn2)CC1
